“Also recorded” adds a separate entry of the source.
Experiments:
OVA induced asthma mice = experiment: Combination therapy of ipratropium with R- and S-salbutamol: lung histopathology (Masson, PAS); type: in vivo
Method: Left lung tissue was obtained for histopathology and fixed in 10% formalin for 24 h, followed by paraffin-embedded and then were sectioned at 4 μm for routine staining with hematoxylin and eosin (H&E, Solarbio, Beijing, China), or with periodic acid-Schiff (PAS, Solarbio, Beijing, China), or submitted to Masson's trichrome staining (Baso, Zhuhai, China). Images of the stained lung sections were obtained by an Axisplus image-capturing system (Zeiss, Germany) and then a minimum of 3 bronchi (luminal diameter, 150-500 μm) were analyzed per mice for various parameters using an image analyzing computer system (IPP) by pathologists blinded to grouping. Histological score, airway smooth muscle thickness, PAS score (goblet cells hyperplasia), and collagen deposition were evaluated by a semi-quantitative scoring method.
Methods used were similar as mentioned above. Nebulized aerosol of saline, Methacholine 2 mg/ml (low dose) or 10 mg/ml (high dose) were given via inhalation to OVA induced asthma mice.

[1] = test system: LPS-induced RAW264.7 cells; experiment: NO production (DAF-FM DA probe, Griess assay); type: cell-based
Method: Macrophages were treated without or with (R)/(S)-salbutamol for 1 h prior to LPS stimulation and subsequently incubated for 12 h. […] The fluorescence of the oxidized product (2′,7′-dichlorofluorescein, DCF) was assessed using an LSM710 Laser Scanning Confocal Microscope (Carl Zeiss, Jena, Germany). The concentration of NO in the culture supernatant was measured by assaying the concentrations of nitrite (a stable NO breakdown product) using the Griess assay (Beyotime, Shanghai, China), according to the manufacturer's instructions. The intracellular NO level was detected using the NO-sensitive fluorescence probe DAF-FM DA (Sigma, St. Louis, Mo., USA) (24). Cells were labeled with DAF-FM DA (10 μM) at 37° C. for 30 min and were gently washed three times with PBS. Fluorescence was detected using a LSM710 Laser Scanning Confocal Microscope (Scale bars, 100 μm) (Carl Zeiss, Jena, Germany).
(§1) In addition, the concentration of NO in the culture supernatant was measured by assaying the concentrations of nitrite (a stable NO breakdown product) using the Griess assay. […] To investigate (R)-salbutamol role on the level of iNOS, the mRNA and protein levels of iNOS were determined.

iNOS = iNOS mRNA and protein levels; type: cell-based
Method: as §1

[2] = test system: macrophages from the peritoneal fluid; experiment: LPS-induced proliferation and polarization of macrophages from the peritoneal fluid (sepsis); type: in vivo
Text: Macrophage activation and proliferation was considered to be the key step of initiation and development of sepsis. In one embodiment, LPS (PAMPs from bacteria) induced a proliferation and polarization of macrophages from the peritoneal fluid. […] These inhibitory effects can be blocked by using specific β2-recepter blocker.

CC(C)(C)NC[C@H](O)c1ccc(O)c(CO)c1 [R-salbutamol, (R)-Salbutamol]
PAS staining: goblet cell hyperplasia, mucus over secretion, airway edema (OVA induced asthma mice; vs OVA model): significant therapeutic benefit | Masson staining: collagen deposition, wall thickness of bronchiole and vascular vessels (OVA induced asthma mice; vs ova (model) group): significant therapeutic effects | production/levels of NO (in words) ([1]; LPS-induced cells): significantly decreased; also recorded: inhibited | decrease of the level of DAF fluorescence (intracellular NO) ([1]; pretreated before LPS, LPS increased by 424% vs control): 2.68 fold | decrease of NO2- expression (Griess assay, culture supernatant) ([1]; pretreatment before LPS, LPS increased 20.25-fold vs control): 2.28 fold | iNOS protein levels (iNOS; LPS+ (R)-salbutamol vs LPS): same changes | iNOS mRNA level (iNOS; pretreated plus LPS, vs LPS): decreased; also recorded: inhibited | number of macrophages from the peritoneal fluid ([2]; LPS sepsis): significantly reduced toward normal level | polarized M1 macrophages or M2 macrophages ([2]; in comparison of sepsis condition): significant reduction

From patent publication US20220362174A1, “Use of R-enantiomer Beta2-agonists for prevent and treatment of pulmonary inflammation and inflammatory remodeling for reduced adverse effects” (priority 2019, published 2022)
